Experimental data: patent US20180228858A1, “A PLANT EXTRACT AND COMPOUNDS FOR USE IN WOUND HEALING” (priority 2014, published 2018)

Columns and labels:
[1] = biological target: T1, human CYP11B1 (Homo sapiens, UniProt P15538); assay: CYP11B1 assay in V79MZh11B1 cells expressing recombinant human CYP11B1; assay type: cell-based; conditions: mean ± SD of 2 independent experiments; for inhibition at 1 µM: V79MZh11B1, 1 μM; for inhibition at 10 µM: V79MZh11B1, 10 μM; for inhibition at 100 µM: V79MZh11B1, 100 μM; for % CYP11B1 Inhibition: 10 μM
T1 construct: expressed in transfected cells; host or cells: V79MZh11B1 cell line (V79 hamster fibroblasts by own knowledge)
T1 sequence (P15538 25-503): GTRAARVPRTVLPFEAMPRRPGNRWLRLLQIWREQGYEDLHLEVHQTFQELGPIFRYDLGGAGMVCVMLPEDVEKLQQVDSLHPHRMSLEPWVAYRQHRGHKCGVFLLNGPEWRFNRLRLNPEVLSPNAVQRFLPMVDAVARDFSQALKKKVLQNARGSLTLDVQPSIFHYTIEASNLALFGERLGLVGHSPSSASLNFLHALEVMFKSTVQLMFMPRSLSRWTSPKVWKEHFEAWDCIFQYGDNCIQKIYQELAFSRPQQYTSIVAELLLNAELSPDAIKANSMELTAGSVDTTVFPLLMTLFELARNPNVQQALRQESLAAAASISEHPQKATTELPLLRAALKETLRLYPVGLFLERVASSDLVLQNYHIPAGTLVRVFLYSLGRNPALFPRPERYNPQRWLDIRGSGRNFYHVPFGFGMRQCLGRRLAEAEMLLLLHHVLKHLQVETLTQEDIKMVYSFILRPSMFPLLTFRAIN
Experimental: Applicant dissolved ˜10 mg of the Salvia m. Bunge extract (as disclosed in WO2009050451) in the required volume of 100% ethanol or 100% DMSO to obtain a 1% (w/v) extract solution. They tested 5 μL of this solution in a 500 μL assay incubation volume (final ethanol or DMSO conc. of 1%). From this 1% Salvia m. Bunge extract solution, they also prepared a 1:10 and 1:100 dilution in 100% ethanol or 100% DMSO. From these solutions, they tested 5 μL in a 500 μL assay incubation volume.
The V79MZh11B1 cell line, expressing recombinant human CYP11B1, was cultured in Dulbecco's modified Eagle (DME, Sigma) medium supplemented with 5% fetal calf serum (FCS; Sigma), penicillin G (100 U/ml), streptomycin (100 μg/ml), glutamine (2 mM) and sodium pyruvate (1 mM) at 37° C. in 5% CO2 in air. Cells were placed on 24-well cell culture plates (8×10^5 cells per well) and cultured in 1 ml DME medium per well until confluence. On the day of testing, DME medium was removed and 450 μl of fresh DMEM, containing 5 μl of the extract solution in 100% ethanol or 100% DMSO, was added to each well. There was no significant difference in CYP11B1 inhibition between DMSO or ethanol as solvent. Control wells (receiving vehicle or ketoconazole (final concentration of 50 nM) as reference compound to validate each experiment) were treated in the same way without extract solution. After 60 min at 37° C. in the CO2 incubator, the reaction was started by the addition of 50 μl of DMEM containing 100 nM of 11-deoxycorticosterone (plus 0.15 μCi of [1,2-^3H] 11-deoxycorticosterone) as substrate. All measurements were in duplicate. After 25 min, the enzyme reaction was stopped by extracting the supernatant with ethyl acetate. Samples were centrifuged (10,000×g, 10 min), and the upper phase was pipetted into fresh cups. The ethylacetate solvent was evaporated and the residue was dissolved in 40 μl of methanol and analyzed by HPLC. The following formulas were used to determine the level of conversion and percentage of enzyme inhibition.
Given the activity of the extract the Applicant looked at the activity of some of the tanshinones using the methodology described in Example 1.

[2] = tested on: V79MZh11B1 cells; assay: MTT cellular viability assay; assay type: cell-based
Experimental: In order to check that the inhibition was not due to toxicity, a MTT [3-(4,5-dimethylthiazol-2-yl)-2,5-diphenyl-tetrazolium bromide] cellular viability assay was performed in the same cell line under the incubation conditions used in the CYP11B1 screening assay as set out in Example 2 below:
V79MZh11B1 cells were cultured on 24-well cell culture plates (8×10^5 cells per well) in 1 ml DME medium until confluence. On the day of testing, DME medium was removed and 450 μl of fresh DME medium with 5% FCS, containing 5 μl of the Salvia m. Bunge extract solution in 100% ethanol, was added to each well. Ethanol (1%) and Triton® X-100 (0.0006%) were used as vehicle and positive control (all final concentrations), respectively. All measurements were in quadruplicate. After 60 min at 37° C. in a 5% CO2, 50 μl of fresh DME medium (+5% FCS) was added to each well. After 25 min, medium was replaced by 500 μl fresh DME medium (+5% FCS) to which 25 μl of MTT solution (5 mg per ml PBS, pH 7.2) was added immediately. After 30 min, all medium was removed and the cells were lysed in 250 μl of 0.5% acetic acid (v/v), 10% SDS (w/v) in DMSO. Absorbance of formazan was measured spectrophotometrically at 570 nm wavelength

Row | Compound | inhibition at 1 µM [1] | inhibition at 10 µM [1] | inhibition at 100 µM [1] | % CYP11B1 Inhibition [1] | Cell viability (MTT conversion into formazan, 1% ethanol = 100%) ([2]; Experiment 1, final conc. 0.0006%) | Cell viability (MTT conversion into formazan, 1% ethanol = 100%) ([2]; Experiment 2, final conc. 0.0006%) | effect on formazan formation ([2]; positive control, 0.0006%)
1 | C[C@H]1COC2=C1C(=O)C(=O)c1c2ccc2c1CCCC2(C)C [Cryptotanshinone] | 6.4 ± 1.6% | 15.4 ± 10.3% | 59.9 ± 22% | – | – | – | –
2 | Cc1cccc2c3c(ccc12)C1=C(C(=O)C3=O)[C@@H](C)CO1 [Dihydrotanshinone, 15,16-dihydrotanshinone I] | 43.3 ± 14.7% | 94% | 100% | 93.6 ± 9.1% | – | – | –
3 | Cc1coc2c1C(=O)C(=O)c1c-2ccc2c1CCCC2(C)C [Tanshinone IIA] | 5.9 ± 0.2% | 16.1 ± 13.5% | 29.4 ± 0.4% | – | – | – | –
4 | Cc1coc2c1C(=O)C(=O)c1c-2ccc2c(C)cccc12 [Tanshinone I] | 19.1 ± 7.9% | 64% | 81.1 ± 6.9% | 63.7 ± 4.5% | – | – | –
5 | Triton X-100 | – | – | – | – | 3 ± 1% | 3 ± 1% | almost fully block formazan formation
